Reference: US20260166162A1, “CARBON CHAIN SUBSTANCE FOR REGULATING TRANSMEMBRANE TRANSPORT AND FLUIDITY OF CELL MEMBRANES, AND PREPARATION AND USE THEREOF” (priority 2022, published 2026)
Like-named read-outs stand apart in the source and are kept apart here.

Assays:
[1] = mouse, in vivo, po
Staphylococcus aureus = test: Bacteriostasis/sterilization test (plate count); assay type: cell-based; details: for inhibition rate: concentration 0.035 mM; for IC50: read-out: half inhibition concentration; for Inhibition rate (%) / inhibition at 35 µM: 0.035 mM (Table 25); for inhibition at 35 µM: read-out: Inhibition rate (%); for inhibition at 9 µM: concentration 0.009 mM, read-out: inhibition rate
VERO E6 cells = test: Cytotoxicity (CCK-8) on VERO E6 cells
IL-6 [2] = test: LPS inflammatory aging in C57BL/6 mice, serum IL-6 (Example II-55, Table II-36); assay type: in vivo, mouse; details: 1 mM, 200 μl/time once a day for 30 days; serum, LPS C57BL/6 mice
H5N1 pseudovirus = assay type: cell-based, Influenza pseudovirus H5N1-Fluc
HIV pseudovirus = assay type: cell-based, HIV pseudovirus HIV18A-41
H7N9 pseudovirus = assay type: cell-based, Influenza pseudovirus H7N9-Fluc
Streptococcus pneumoniae = test: Bacteriostasis/sterilization test (plate count); assay type: cell-based; details: for Inhibition rate (%): 0.035 mM (Table 25); for inhibition at 35 µM: Streptococcus pneumoniae, read-out: Inhibition rate (%)
Hela cells = test: Cell membrane fluidity (Laurdan fluorescence recovery) in Hela cells; assay type: cell-based
IL-1β [3] = test: LPS inflammatory aging in C57BL/6 mice, serum IL-1β (Example II-55, Table II-35); assay type: in vivo, mouse; details: 1 mM, 200 μl/time, once a day, 30 days
SARS-CoV-2 pseudovirus [4] = test system: SARS-CoV-2 pseudovirus; set-up: species or system SARS-CoV-2 pseudovirus B.1.526.2
Klebsiella pneumoniae = test: Bacteriostasis/sterilization test (plate count); assay type: cell-based; details: for Inhibition rate (%): 0.035 mM (Table 25); for inhibition at 35 µM: Klebsiella pneumoniae, read-out: Inhibition rate (%)
[5] = test system: Methicillin-resistant Staphylococcus aureus; test: Bacteriostasis/sterilization test (plate count); assay type: cell-based; details: 0.035 mM (Table 25)
Pseudomonas aeruginosa = test: Bacteriostasis/sterilization test (plate count); assay type: cell-based; details: for Inhibition rate (%): 0.035 mM (Table 25); for inhibition at 35 µM: Pseudomonas aeruginosa, read-out: Inhibition rate (%)
TNF-α [6] = test: LPS inflammatory aging in C57BL/6 mice, serum TNF-α (Example II-55, Table II-37); assay type: in vivo, mouse; details: 1 mM, 200 μl/time once a day for 30 days, LPS C57BL/6 mice
IL-6 [7] = test: Skin photoaging (UVB) in BALB/c nude mice, serum IL-6 (Example II-54, Table II-34); assay type: in vivo, mouse; details: serum, UVB-irradiated BALB/c nude mice, 40 days
SARS-CoV-2 pseudovirus [8] = assay type: cell-based, SARS-CoV-2 pseudovirus B.1.526.2
Escherichia coli = test: Bacteriostasis/sterilization test (plate count); assay type: cell-based; details: for Inhibition rate (%): 0.035 mM (Table 25); for inhibition at 35 µM: Escherichia coli, read-out: Inhibition rate (%)
IL-1β [9] = test: Skin photoaging (UVB) in BALB/c nude mice, serum IL-1β (Example II-54, Table II-33); assay type: in vivo, mouse; details: serum, UVB-irradiated BALB/c nude mice, 40 days
TNF-α [10] = test: Skin photoaging (UVB) in BALB/c nude mice, serum TNF-α (Example II-54, Table II-32); assay type: in vivo, mouse; details: UVB-irradiated BALB/c nude mice, 40 days
293T cells = test: Cellular phagocytosis of DiD-loaded lipid vesicles (nano-drugs) by 293T cells (Example II-51, Table II-29); assay type: cell-based; details: 293T cells pretreated 4 h, DiD lipid vesicles 2 h, n=3, untreated control 226.46 ± 1.26
[11] = test system: SARS-CoV-2 pseudovirus (B.1.526.2); assay type: cell-based; details: n=3

## CCCCCCCC/C=C\CCCCCCCC(=O)NCCCCC(N)C(=O)O (centres unmarked)
[1]
  liver, heart, kidney, bone/hepatobiliary function in blood versus control group: no difference
  physiological state, body weight, fur color, food consumption, mental state versus control group: not significantly different
Staphylococcus aureus
  inhibition rate: greater than 99%
  IC50: 9 µM
VERO E6 cells; […] to 0.035 mM
  effect of the complex on cells: less than 1%

## CCC=CCC=CCC=CCC=CCC=CCC=CCCC(=O)OC(C)C(N)C(=O)O (centres unmarked)
IL-6 [2]
  IL-6: 50 pg/mL
H5N1 pseudovirus
  Sterilization rate (%): 99%
HIV pseudovirus
  Sterilization rate (%): 99%
H7N9 pseudovirus
  Sterilization rate (%): 99%
Streptococcus pneumoniae
  Inhibition rate (%): 99%
Hela cells; 2 nM, 20 s
  Fluorescence recovery rate %: 65.48%
Hela cells; 2 nM, 40 s
  Fluorescence recovery rate %: 66.31%
Hela cells; 2 nM, 60 s
  Fluorescence recovery rate %: 66.25%
Hela cells; 2 nM, 80 s
  Fluorescence recovery rate %: 66.78%
Hela cells; 5 nM, 20 s
  Fluorescence recovery rate %: 65.47%
Hela cells; 5 nM, 40 s
  Fluorescence recovery rate %: 65.23%
Hela cells; 5 nM, 60 s
  Fluorescence recovery rate %: 65.38%
Hela cells; 5 nM, 80 s
  Fluorescence recovery rate %: 66.45%
Hela cells; 10 nM, 20 s
  Fluorescence recovery rate %: 65.89%
Hela cells; 10 nM, 40 s
  Fluorescence recovery rate %: 66.04%
Hela cells; 10 nM, 60 s
  Fluorescence recovery rate %: 66.59%
Hela cells; 10 nM, 80 s
  Fluorescence recovery rate %: 66.71%
Hela cells; 50 nM, 20 s
  Fluorescence recovery rate %: 67.42%
Hela cells; 50 nM, 40 s
  Fluorescence recovery rate %: 67.43%
Hela cells; 50 nM, 60 s
  Fluorescence recovery rate %: 67.57%
Hela cells; 50 nM, 80 s
  Fluorescence recovery rate %: 68.06%
Hela cells; 50 μM, 20 s
  Fluorescence recovery rate %: 66.54%
Hela cells; 50 μM, 40 s
  Fluorescence recovery rate %: 73.45%
Hela cells; 50 μM, 60 s
  Fluorescence recovery rate %: 77.91%
Hela cells; 50 μM, 80 s
  Fluorescence recovery rate %: 84.66%
Hela cells; 100 μM, 20 s
  Fluorescence recovery rate %: 66.60%
Hela cells; 100 μM, 40 s
  Fluorescence recovery rate %: 74.67%
Hela cells; 100 μM, 60 s
  Fluorescence recovery rate %: 78.31%
Hela cells; 100 μM, 80 s
  Fluorescence recovery rate %: 86.44%
IL-1β [3]
  IL-1β: 55 pg/mL
SARS-CoV-2 pseudovirus [4]
  membrane structure of the virus (TEM): broken
Klebsiella pneumoniae
  Inhibition rate (%): 99%
[5]
  Inhibition rate (%): 99%
Pseudomonas aeruginosa
  Inhibition rate (%): 99%
TNF-α [6]
  TNF-α: 53 pg/mL
Staphylococcus aureus
  Inhibition rate (%): 99%
  inhibition rate: greater than 99%
  IC50: 9 µM
IL-6 [7]; 30 μM smeared
  IL-6: 36 pg/mL
IL-6 [7]; 50 μM smeared
  IL-6: 35 pg/mL
IL-6 [7]; 100 μM smeared
  IL-6: 34 pg/mL
SARS-CoV-2 pseudovirus [8]
  Sterilization rate (%): 99%
Escherichia coli
  Inhibition rate (%): 99%
IL-1β [9]; 30 μM smeared
  IL-1β: 54 pg/mL
IL-1β [9]; 50 μM smeared
  IL-1β: 56 pg/mL
IL-1β [9]; 100 μM smeared
  IL-1β: 50 pg/mL
TNF-α [10]; 30 μM smeared
  TNF-α: 53 pg/mL
TNF-α [10]; 50 μM smeared
  TNF-α: 47 pg/mL
TNF-α [10]; 100 μM smeared
  TNF-α: 49 pg/mL

## CCCCCCCC(=O)OCC(N)C(=O)O (centres unmarked)
H5N1 pseudovirus
  Sterilization rate (%): 99%
HIV pseudovirus
  Sterilization rate (%): 99%
H7N9 pseudovirus
  Sterilization rate (%): 99%
Streptococcus pneumoniae
  Inhibition rate (%): 99%
293T cells; 2 nM
  Fluorescence intensity: 157.30 ± 0.13
293T cells; 5 nM
  Fluorescence intensity: 108.56 ± 0.13
293T cells; 10 nM
  Fluorescence intensity: 104.53 ± 0.13
293T cells; 50 nM
  Fluorescence intensity: 98.90 ± 0.13
293T cells; 100 nM
  Fluorescence intensity: 83.29 ± 5.66
293T cells; 1 uM
  Fluorescence intensity: 447.01 ± 12.33
293T cells; 10 uM
  Fluorescence intensity: 326.69 ± 4.66
293T cells; 50 uM
  Fluorescence intensity: 64.86 ± 5.13
293T cells; 100 uM
  Fluorescence intensity: 59.90 ± 4.13
Klebsiella pneumoniae
  Inhibition rate (%): 99%
[5]
  Inhibition rate (%): 99%
Pseudomonas aeruginosa
  Inhibition rate (%): 99%
Staphylococcus aureus
  Inhibition rate (%): 99%
  inhibition rate: greater than 99%
  IC50: 9 µM
[11]; 2 nM
  Inhibition rate (%): 30.54 ± 0.54%
[11]; 5 nM
  Inhibition rate (%): 52.06 ± 5.23%
[11]; 10 nM
  Inhibition rate (%): 53.84 ± 1.57%
[11]; 50 nM
  Inhibition rate (%): 56.33 ± 1.56%
[11]; 100 nM
  Inhibition rate (%): 63.22 ± 2.55%
[11]; 1 μM
  Inhibition rate (%): -97.39 ± 7.23%
[11]; 10 μM
  Inhibition rate (%): -44.26 ± 0.03%
[11]; 50 μM
  Inhibition rate (%): 71.36 ± 0.28%
[11]; 100 μM
  Inhibition rate (%): 73.55 ± 0.44%
SARS-CoV-2 pseudovirus [8]
  Sterilization rate (%): 99%
Escherichia coli
  Inhibition rate (%): 99%

## CCCCCCCC(=O)OC(C)C(N)C(=O)O (centres unmarked)
H5N1 pseudovirus
  Sterilization rate (%): 99%
HIV pseudovirus
  Sterilization rate (%): 99%
H7N9 pseudovirus
  Sterilization rate (%): 99%
Streptococcus pneumoniae
  Inhibition rate (%): 99%
SARS-CoV-2 pseudovirus [4]
  membrane structure of the virus (TEM): broken
Klebsiella pneumoniae
  Inhibition rate (%): 99%
[5]
  Inhibition rate (%): 99%
Pseudomonas aeruginosa
  Inhibition rate (%): 99%
Staphylococcus aureus
  Inhibition rate (%): 99%
  inhibition rate: greater than 99%
  IC50: 9 µM
SARS-CoV-2 pseudovirus [8]
  Sterilization rate (%): 99%
Escherichia coli
  Inhibition rate (%): 99%

## CCCCCCC(O)CC=CCCCCCCCC(=O)NCCCCC(N)C(=O)O (centres unmarked) [Lys-ricinoleic acid]
IL-6 [2]
  IL-6: 60 pg/mL
IL-1β [3]
  IL-1β: 51 pg/mL
TNF-α [6]
  TNF-α: 43 pg/mL
IL-6 [7]; 30 μM smeared
  IL-6: 34 pg/mL
IL-6 [7]; 50 μM smeared
  IL-6: 38 pg/mL
IL-6 [7]; 100 μM smeared
  IL-6: 33 pg/mL
IL-1β [9]; 30 μM smeared
  IL-1β: 70 pg/mL
IL-1β [9]; 50 μM smeared
  IL-1β: 65 pg/mL
IL-1β [9]; 100 μM smeared
  IL-1β: 63 pg/mL
TNF-α [10]; 30 μM smeared
  TNF-α: 60 pg/mL
TNF-α [10]; 50 μM smeared
  TNF-α: 55 pg/mL
TNF-α [10]; 100 μM smeared
  TNF-α: 57 pg/mL

## CCCCCCCCCN(C)C[C@H](O)[C@@H](O)[C@H](O)[C@H](O)CO [N-nonyl-N-methylglucamine]
H5N1 pseudovirus
  Sterilization rate (%): 99%
HIV pseudovirus
  Sterilization rate (%): 99%
H7N9 pseudovirus
  Sterilization rate (%): 99%
Streptococcus pneumoniae
  inhibition at 35 µM: 99%
Klebsiella pneumoniae
  inhibition at 35 µM: 99%
Pseudomonas aeruginosa
  inhibition at 35 µM: 99%
[1]
  liver, heart, kidney, bone/hepatobiliary function in blood versus control group: no difference
  physiological state, body weight, fur color, food consumption, mental state versus control group: not significantly different
Staphylococcus aureus; Staphylococcus aureus
  inhibition at 35 µM: 99%
  inhibition at 9 µM: > 99%
  IC50: 3 µM
SARS-CoV-2 pseudovirus [8]
  Sterilization rate (%): 99%
Escherichia coli
  inhibition at 35 µM: 99%
VERO E6 cells; 9 mM to 0.035 mM
  effect of the complex on cells: less than 10%

## CCCCCCCCN(C)C[C@H](O)[C@@H](O)[C@H](O)[C@H](O)CO [N-octyl-N-methylglucamine]
H5N1 pseudovirus
  Sterilization rate (%): 99%
HIV pseudovirus
  Sterilization rate (%): 99%
H7N9 pseudovirus
  Sterilization rate (%): 99%
Streptococcus pneumoniae
  inhibition at 35 µM: 99%
Klebsiella pneumoniae
  inhibition at 35 µM: 99%
Pseudomonas aeruginosa
  inhibition at 35 µM: 99%
[1]
  liver, heart, kidney, bone/hepatobiliary function in blood versus control group: no difference
  physiological state, body weight, fur color, food consumption, mental state versus control group: not significantly different
Staphylococcus aureus; Staphylococcus aureus
  inhibition at 35 µM: 99%
  inhibition at 9 µM: > 99%
  IC50: 3 µM
SARS-CoV-2 pseudovirus [8]
  Sterilization rate (%): 99%
Escherichia coli
  inhibition at 35 µM: 99%
VERO E6 cells; 9 mM to 0.035 mM
  effect of the complex on cells: less than 10%

## CCCCCC=CCC=CCCCCCCCC(=O)OCC(N)C(=O)O (centres unmarked) [Ser-linoleic acid]
IL-6 [2]
  IL-6: 39 pg/mL
IL-1β [3]
  IL-1β: 43 pg/mL
TNF-α [6]
  TNF-α: 49 pg/mL
IL-6 [7]; 30 μM smeared
  IL-6: 28 pg/mL
IL-6 [7]; 50 μM smeared
  IL-6: 27 pg/mL
IL-6 [7]; 100 μM smeared
  IL-6: 29 pg/mL
IL-1β [9]; 30 μM smeared
  IL-1β: 53 pg/mL
IL-1β [9]; 50 μM smeared
  IL-1β: 54 pg/mL
IL-1β [9]; 100 μM smeared
  IL-1β: 55 pg/mL
TNF-α [10]; 30 μM smeared
  TNF-α: 48 pg/mL
TNF-α [10]; 50 μM smeared
  TNF-α: 51 pg/mL
TNF-α [10]; 100 μM smeared
  TNF-α: 45 pg/mL

## CCC=CCC=CCC=CCCCCCCCC(=O)OC(C)C(N)C(=O)O (centres unmarked) [Thr-linolenic acid]
IL-6 [2]
  IL-6: 57 pg/mL
IL-1β [3]
  IL-1β: 41 pg/mL
TNF-α [6]
  TNF-α: 52 pg/mL
